Experimental findings from ChEMBL document CHEMBL1132209, “Design, synthesis, and activity of 2,6-diphenoxypyridine-derived factor Xa inhibitors” (J Med Chem, 1999) are described below.

Bounds are passed on as bounds.

Broadly, the Ki is the equilibrium dissociation constant of an inhibitor or competing ligand from its target.

Experiment [1] deals with Coagulation factor X (Homo sapiens, UniProt P00742). The experiment is described as follows: Compound was tested for inhibition activity against Coagulation factor X.
For experiment [2], the target named is Prothrombin (Homo sapiens, UniProt P00734). The experiment is described as follows: Compound was tested for inhibition activity against human thrombin (FIIa).
Experiment [3] addresses T1, Serine protease 1 (Bos taurus, UniProt P00760).
T1 sequence (P00760 whole entry): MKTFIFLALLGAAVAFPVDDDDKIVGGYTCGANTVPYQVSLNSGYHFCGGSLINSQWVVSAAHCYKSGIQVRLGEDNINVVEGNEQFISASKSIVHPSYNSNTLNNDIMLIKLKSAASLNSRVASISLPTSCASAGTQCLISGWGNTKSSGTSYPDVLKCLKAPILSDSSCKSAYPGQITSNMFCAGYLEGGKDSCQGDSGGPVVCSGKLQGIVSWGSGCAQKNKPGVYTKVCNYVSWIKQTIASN
The experiment is described as follows: Compound was tested for inhibition activity against bovine trypsin.

Coagulation factor X, sequence (P00742 41-179 limits assumed): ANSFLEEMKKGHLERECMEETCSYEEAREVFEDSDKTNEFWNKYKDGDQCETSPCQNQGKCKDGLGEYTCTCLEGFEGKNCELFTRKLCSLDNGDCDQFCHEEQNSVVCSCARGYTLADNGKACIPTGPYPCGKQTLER
Coagulation factor X, sequence (P00742 235-488 limits assumed): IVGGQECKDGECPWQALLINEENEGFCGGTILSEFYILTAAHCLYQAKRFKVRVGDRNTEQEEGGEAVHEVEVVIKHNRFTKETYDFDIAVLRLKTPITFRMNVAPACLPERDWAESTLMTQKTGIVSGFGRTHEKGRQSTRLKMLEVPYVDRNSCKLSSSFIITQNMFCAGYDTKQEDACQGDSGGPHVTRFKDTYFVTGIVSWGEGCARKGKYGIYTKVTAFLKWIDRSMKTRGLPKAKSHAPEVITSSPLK

In the case of `N=C(N)c1cccc(Oc2cncc(Oc3cccc(C(=N)N)c3)n2)c1`, the values for the Ki in experiment [1], in experiment [2] and in experiment [3] were 51 nM, over 5000 nM and 970 nM, respectively.

Consider `N=C(N)c1cccc(Oc2ccc(C(=O)NCC(N)=O)c(Oc3cccc(C(=N)N)c3)n2)c1`, for which the Ki is 690 nM in experiment [1], over 5000 nM in experiment [2] and 2000 nM in experiment [3].

Consider `N=C(N)c1ccc(/C=C2\CCCC/C(=C\c3ccc(C(=N)N)cc3)C2=O)cc1`, for which the Ki was 0.66 nM in experiment [1], 530 nM in experiment [2] and 33 nM in experiment [3].

As to `N=C(N)c1cccc(Oc2ccnc(Oc3cccc(C(=N)N)c3)n2)c1`, the Ki in experiment [1] was 120 nM; in experiment [2] it was over 5000 nM; in experiment [3], 760 nM.

`CNC(=O)Nc1ccc(Oc2cccc(C(=N)N)c2)nc1Oc1cccc(C(=N)N)c1`: the Ki in experiment [1] was 59 nM; in experiment [2], over 5000 nM; in experiment [3], 840 nM.

`N=C(N)c1cccc(Oc2ccc(N)c(Oc3cccc(C(=N)N)c3)n2)c1`: the Ki in experiment [1] was 53 nM; in experiment [2], over 5000 nM; in experiment [3], 1300 nM.

Consider `N=C(N)c1cccc(Oc2ccc(NC(=O)Nc3ccccc3)c(Oc3cccc(C(=N)N)c3)n2)c1`, for which the Ki in experiment [1] stood at 62 nM; in experiment [2] it was 3400 nM; in experiment [3] it was 100 nM.

As to `CN(C)C(=O)c1ccc(Oc2cccc(C(=N)N)c2)nc1Oc1cccc(C(=N)N)c1`, the Ki in experiment [1] was 32 nM; in experiment [2] it was over 5000 nM; in experiment [3] it was 780 nM.

In the case of `N=C(N)c1cccc(Oc2cc(Oc3ccccc3C(=N)N)ccc2N)c1`, affinity in experiment [1] was put at a Ki of 1100 nM.

Turning to `CC(=O)Nc1ccc(Oc2cccc(C(=N)N)c2)nc1Oc1cccc(C(=N)N)c1`, the Ki in experiment [1] is 52 nM; in experiment [2] it was over 5000 nM; in experiment [3], 1200 nM.

Turning to `N=C(N)c1ccccc1Oc1cccc(Oc2ccccc2C(=N)N)n1`, in experiment [1], the Ki is over 5000 nM.

`N=C(N)c1ccc(Oc2cc(Oc3ccc(C(=N)N)cc3)c(Cl)cc2Cl)cc1`: the Ki in experiment [1] is 1100 nM; in experiment [2], 2500 nM; in experiment [3] it was 1800 nM.

Regarding `N=C(N)c1ccc(Oc2cccc(Oc3ccccc3C(=N)N)n2)cc1`, the Ki amounted to 130 nM in experiment [1], 1200 nM in experiment [2] and 1900 nM in experiment [3].

For `CNC(=O)c1cc(Oc2cccc(C(=N)N)c2)nc(Oc2cccc(C(=N)N)c2)c1`, the Ki in experiment [1] is 60 nM; in experiment [2] it was 4200 nM; in experiment [3] it was 750 nM.

`CCOC(=O)c1cc(Oc2cccc(C(=N)N)c2)nc(Oc2cccc(C(=N)N)c2)c1`: the Ki in experiment [1] came to 34 nM; in experiment [2] it was 11000 nM; in experiment [3] it was 800 nM.

Turning to `N=C(N)c1cccc(Oc2ccc(C(=O)O)c(Oc3cccc(C(=N)N)c3)n2)c1`, the Ki in experiment [1] was 95 nM; in experiment [2], over 100000 nM; in experiment [3], 2200 nM.

Take `N=C(N)c1cccc(Oc2ccc(C(F)(F)F)c(Oc3cccc(C(=N)N)c3)n2)c1`: the Ki is 110 nM in experiment [1], over 5000 nM in experiment [2] and 780 nM in experiment [3].

For the compound `CS(=O)(=O)Nc1ccc(Oc2cccc(C(=N)N)c2)nc1Oc1cccc(C(=N)N)c1`, the figures for the Ki in experiment [1], in experiment [2] and in experiment [3] were 130 nM, over 5000 nM and 1900 nM, respectively.

Consider `Cc1c(F)c(Oc2cccc(C(=N)N)c2)nc(N(C)c2cccc(C(=N)N)c2)c1F`, for which the values for the Ki in experiment [1], in experiment [2] and in experiment [3] were 12 nM, 1900 nM and 690 nM, respectively.

`Cc1c(F)c(N(C)c2cccc(C(=N)N)c2)nc(N(C)c2cccc(C(=N)N)c2)c1F`: the values for the Ki in experiment [1], in experiment [2] and in experiment [3] were 98 nM, 360 nM and 360 nM, respectively.

For the compound `N=C(N)c1cccc(Oc2ccc(NC(=O)c3ccccc3)c(Oc3cccc(C(=N)N)c3)n2)c1`, the results for the Ki in experiment [1], in experiment [2] and in experiment [3] were 120 nM, 3400 nM and 260 nM, respectively.

On to `N=C(N)c1cccc(Oc2cc(C(N)=O)cc(Oc3cccc(C(=N)N)c3)n2)c1`, for which the values for the Ki in experiment [1], in experiment [2] and in experiment [3] were 42 nM, 6000 nM and 780 nM, respectively.

`CNC(=O)c1ccc(Oc2cccc(C(=N)N)c2)nc1Oc1cccc(C(=N)N)c1`: the values for the Ki in experiment [1], in experiment [2] and in experiment [3] were 230 nM, over 5000 nM and 1400 nM, respectively.

For the compound `N=C(N)c1cccc(Oc2ccc(NC(=O)NCC(N)=O)c(Oc3cccc(C(=N)N)c3)n2)c1`, the Ki in experiment [1] is 110 nM; in experiment [2], over 5000 nM; in experiment [3] it was 280 nM.

For the compound `COc1c(F)c(Oc2cccc(C(=N)N)c2)nc(Oc2cccc(C(=N)N)c2)c1F`, the values for the Ki in experiment [1], in experiment [2] and in experiment [3] were 23 nM, over 5000 nM and 1100 nM, respectively.

Regarding `N=C(N)c1cccc(Oc2c[nH]c(=O)c(Oc3cccc(C(=N)N)c3)n2)c1`, the Ki in experiment [1] is 190 nM; in experiment [2], over 5000 nM; in experiment [3], 760 nM.

For the compound `Cc1c(F)c(Nc2cccc(C(=N)N)c2)nc(Oc2cccc(C(=N)N)c2)c1F`, the Ki in experiment [1] is 660 nM; in experiment [2], over 5000 nM; in experiment [3], 3100 nM.

As for `N=C(N)c1cccc(Oc2cc(Oc3ccccc3C(=N)N)ccc2[N+](=O)[O-])c1`, the Ki in experiment [1] stood at 300 nM.

Take `N=C(N)c1cccc(Oc2ccc(C(N)=O)c(Oc3cccc(C(=N)N)c3)n2)c1`: the Ki in experiment [1] was 600 nM; in experiment [2], over 5000 nM; in experiment [3], 1200 nM.

As to `N=C(N)c1ccc(Oc2cccc(Oc3ccc(C(=N)N)cc3)c2)cc1`, the values for the Ki in experiment [1], in experiment [2] and in experiment [3] were 970 nM, 4900 nM and 1000 nM, respectively.

For the compound `CCOC(=O)c1ccc(Oc2cccc(C(=N)N)c2)nc1Oc1cccc(C(=N)N)c1`, the Ki in experiment [1] is 190 nM; in experiment [2], over 5000 nM; in experiment [3] it was 920 nM.
